US11046716B2, “Beta-lactamase inhibitors” (priority 2015, dated 2021)

What was measured:
SHV-5 = target: T1, SHV-5 (Klebsiella pneumoniae, UniProt P0A3M1); assay: β-lactamase enzyme inhibition assay, SHV-5 (cefotaxime substrate); type: biochemical
T1 construct: made in house; host or cells: E. coli BL21(DE3)
Protocol: (§1) For SHV-5, Kpc-2, p99AmpC and OXA-1 β-lactamases, E. coli BL21(DE3) bacterial cells carrying expression plasmids (expressed as native untagged proteins) for the individual β-lactamases were grown in 1 L of Superbroth (Teknova Inc. Hollister, Calif.) supplemented with 100 μg/ml kanamycin selection and 1×5052 (0.5% glycerol, 0.05% glucose and 0.2% α-lactose) at 35° C. for 18-20 hours. Cells were harvested by centrifugation (4,000×g, 4° C., 20 min), resuspended in 50 ml of 10 mM HEPES pH 7.5 ( 1/20 of the initial volume). The cells were lysed by sonication (5 pulses of 45 seconds) at 45 W on ice. The lysates were clarified by centrifugation at 10,000×g for 40 minutes at 4° C. Samples were diluted 5-fold in 50 mM sodium acetate pH 5.0, stored overnight at 4° C., after which they were centrifuged at 10,000×g for 30 minutes to clarify, and filtered through 0.45 μm filters. The samples were loaded onto a 5 ml Capto S sepharose cation exchange column (GE Healthcare) pre-equilibrated with 50 mM sodium acetate pH 5.0. The column was washed with 5 column volumes of 50 mM sodium acetate pH 5.0 to wash out unbound protein and a linear gradient of NaCl (0 to 500 mM) was used to elute the protein (over 16 CV) from the column. Fractions were assayed for β-lactamase activity using Centa (Calbiochem, Gibbstown, N.J.) or Nitrocefin (EMD Millipore chemicals, Darmstadt, Germany) as a reporter β-lactamase substrate for activity in the isolated fractions. Active fractions were pooled, concentrated and further purified by gel filtration chromatography on a Superdex 75 prep grade gel filtration column (GE Healthcare, Piscataway, N.J.) pre-equilibrated in 50 mM Hepes pH 7.5, 150 mM NaCl. Active fractions were pooled concentrated, quantitated by BCA protein determination (Thermo Scientific, Rockford, Ill.), dialyzed into PBS and frozen at −80° C. in 20% glycerol until use.
(§2) An equal volume of diluted enzyme stock was added, and the plates were incubated at 37° C. for 15 min. Nitrocefin was used as substrate for p99 AmpC, VIM-2 and OXA-1 and dispensed into each well at a final concentration of 100 μM. Absorbance at 486 nm was immediately monitored for 10 min using a Biotek Powerwave XS2 microplate spectrophotometer using the GEN5 software package (Biotek Instruments, Winooski Vt.). In an analogous fashion, imipenem was used as substrate for Kpc-2 and Cefotaxime was used for SHV-5, while changes in absorbance upon hydrolysis of the β-lactam ring were monitored at 300 nm and 260 nm respectively in UV-transparent 96-well microtiter assay plates. Maximum rates of hydrolysis were compared to those in control wells (without inhibitors), and percentages of enzyme inhibition were calculated for each concentration of inhibitor. The concentration of inhibitor needed to reduce the initial rate of hydrolysis of substrate by 50% (IC50) was calculated as the residual activity of β-lactamase at 486 nm using GraFit version 7 kinetics software package (Erithacus Software, Surrey, UK).
(§3) Using the methodology described above, examples of the current invention were evaluated for their ability to inhibit β-lactamase enzymes from all four Ambler classifications (A through D). […] NT=Not tested.

KPC-2 = target: T2, KPC-2 (Klebsiella pneumoniae, UniProt Q9F663); assay: β-lactamase enzyme inhibition assay, KPC-2 (imipenem substrate); type: biochemical; details: Class A; imipenem substrate, 300 nm; read-out: KPC-2
T2 construct: made in house; host or cells: E. coli BL21(DE3)
Protocol: as §1, §2, §3

[1] = tested on: K. pneumoniae expressing the Class A carbapenemase KPC-2; assay: Broth microdilution MIC assay with meropenem, K. pneumoniae KPC-2; type: cell-based; details: Fixed Mero (meropenem) 4 μg/mL; K. p. 156319 KPC-3
Text: (§4) To determine the ability of test compounds to potentiate the inhibition of the growth of bacterial strains that produce beta-lactamase enzymes in the presence of a β-lactam antibiotic, classic cell based broth microdilution MIC assays were employed. Six bacteria strains producing beta-lactamase enzymes were used: E. coli expressing the Class A Extended Spectrum Beta-Lactamase (ESBL) CTX-M-15, E. cloacae expressing the Class C P99, K. pneumoniae expressing the Class A carbapenemase KPC-2, P. aeruginosa expressing the Class B carbapenemase VIM-2, K. pneumoniae expressing the class A carbapenemase KPC-2 and the class B carbapenemase VIM-4, and K. pneumoniae producing the Class D carbapenemase OXA-48. The assay was conducted in Cation Adjusted Mueller Hinton Broth (CAMHB, BD #212322, BD Diagnostic Systems, Sparks, Md.). Bacteria strains were grown for 3-5 hours in CAMBH broth. Test compounds (Examples 1-94) were added to a microtiter plate in 2-fold serial dilutions in CAMHB in a final concentration range of 16 μg/mL to 0.125 μg/ml. An overlay of CAMHB containing a Beta-lactam was added to the compounds at a final static concentration of 4 μg/ml. […] In addition to the titration of test compounds the MICs of a panel of control beta-lactams is also tested to ensure the strains are behaving consistently from test to test. Once the test compound and antibiotics are added the plates can be inoculated according to CLSI broth microdilution method. After inoculation the plates are incubated for 16-20 hours at 37° C. then the Minimal Inhibitory Concentration (MIC) of the test compound is determined visually.
(§5) Using the methodology described above, examples of the current invention were evaluated for their ability to inhibit the growth of β-lactamase-producing bacteria in the presence of a β-lactam antibiotic.

AmpC = target: T3, AmpC (Enterobacter cloacae, UniProt P05364); assay: β-lactamase enzyme inhibition assay, p99 AmpC (nitrocefin substrate); type: biochemical
T3 construct: made in house; host or cells: E. coli BL21(DE3)
Protocol: as §1, §2, §3

VIM-2 = target: T4, VIM-2 (Escherichia coli, UniProt Q5U7L7); assay: β-lactamase enzyme inhibition assay, VIM-2 (nitrocefin substrate); type: biochemical; details: Class B; nitrocefin substrate, 486 nm; read-out: VIM-2
T4 construct: made in house; host or cells: E. coli BL21(DE3)
Protocol: For Vim-2 metallo β-lactamase, the procedure was identical with the following exceptions, first the protein was not pH adjusted to pH 5 with 50 mM sodium acetate, second, the chromatography step was changed to a 5 ml Q sepharose anion exchange column pre-equilibrated with 50 mM Hepes pH 7.5, and elution of the protein was achieved by a linear gradient of NaCl (0-600 mM). Finally, the VIM-2 purification required a second run (3rd step) on the Q sepharose anion exchange column to achieve acceptable purity (>90%).
as §2, §3

[2] = tested on: E. coli expressing the Class A Extended Spectrum Beta-Lactamase (ESBL) CTX-M-15; assay: Broth microdilution MIC assay with ceftazidime, E. coli CTX-M-15; type: cell-based; details: for MIC (μg/mL) of Exemplary Compounds in presence of fixed β-lactams: E. coli ESBL4 CTX-M-15: Fixed CAZ (ceftazidime) 4 μg/mL
Text: as §4, §5

[3] = tested on: K. pneumoniae expressing the class A carbapenemase KPC-2 and the class B carbapenemase VIM-4; assay: Broth microdilution MIC assay with meropenem, K. pneumoniae KPC-2 and VIM-4; type: cell-based; details: Fixed Mero (meropenem) 4 μg/mL; K. p. A-1797 KPC-2 VIM-4
Text: as §4, §5

[4] = tested on: K. pneumoniae producing the Class D carbapenemase OXA-48; assay: Broth microdilution MIC assay with meropenem, K. pneumoniae OXA-48; type: cell-based; details: Fixed Mero (meropenem) 4 μg/mL; K. p. 11978 OXA-48
Text: as §4, §5

OXA-48 = OXA-48 (UniProt Q6XEC0); assay: β-lactamase enzyme inhibition assay, Class D oxacillinase; type: biochemical; details: read-out: OXA-48
[5] = tested on: P. aeruginosa expressing the Class B carbapenemase VIM-2; assay: Broth microdilution MIC assay with meropenem, P. aeruginosa VIM-2; type: cell-based; details: Fixed Mero (meropenem) 4 μg/mL; P. aerug. 2775 VIM-2
Text: as §4, §5

[6] = tested on: E. cloacae expressing the Class C P99; assay: Broth microdilution MIC assay with ceftazidime, E. cloacae P99; type: cell-based; details: Enterobacter cloacae, read-out: MIC alone
Text: as §4, §5

T2 sequence (Q9F663 25-293, looked up): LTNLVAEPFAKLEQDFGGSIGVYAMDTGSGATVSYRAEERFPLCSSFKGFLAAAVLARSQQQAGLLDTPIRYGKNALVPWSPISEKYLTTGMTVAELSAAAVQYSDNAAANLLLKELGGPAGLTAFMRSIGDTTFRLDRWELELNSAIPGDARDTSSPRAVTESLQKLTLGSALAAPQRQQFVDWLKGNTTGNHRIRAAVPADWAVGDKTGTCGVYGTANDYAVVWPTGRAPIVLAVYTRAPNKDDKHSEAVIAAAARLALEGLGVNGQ
T1 sequence (P0A3M1 22-286): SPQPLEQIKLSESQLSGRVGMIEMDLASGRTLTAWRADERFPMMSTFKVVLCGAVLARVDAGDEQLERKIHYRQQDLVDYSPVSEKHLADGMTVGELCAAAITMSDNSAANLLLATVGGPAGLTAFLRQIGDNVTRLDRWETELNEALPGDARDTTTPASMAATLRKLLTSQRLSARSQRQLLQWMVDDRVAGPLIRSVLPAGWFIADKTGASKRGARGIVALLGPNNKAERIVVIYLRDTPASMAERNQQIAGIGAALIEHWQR
T3 sequence (P05364 21-381): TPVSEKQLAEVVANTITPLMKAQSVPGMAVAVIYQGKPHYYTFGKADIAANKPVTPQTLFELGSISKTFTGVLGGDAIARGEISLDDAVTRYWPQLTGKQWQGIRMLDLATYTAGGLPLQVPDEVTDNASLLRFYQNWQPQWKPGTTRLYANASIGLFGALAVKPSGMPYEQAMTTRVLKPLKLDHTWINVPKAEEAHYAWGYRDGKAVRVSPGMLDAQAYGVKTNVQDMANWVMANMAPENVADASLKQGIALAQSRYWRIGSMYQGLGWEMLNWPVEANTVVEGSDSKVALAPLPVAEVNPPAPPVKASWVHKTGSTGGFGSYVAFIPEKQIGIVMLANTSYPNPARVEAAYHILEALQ

Compound	IC50 (SHV-5) [nM]	IC50 (KPC-2) [nM]	MIC (μg/mL) of Exemplary Compounds in presence of fixed β-lactams: K. p. 156319 KPC-3 [1]	IC50 (AmpC) [nM]	IC50 (VIM-2) [nM]	MIC (μg/mL) of Exemplary Compounds in presence of fixed β-lactams: E. coli ESBL4 CTX-M-15 [2]	MIC (μg/mL) of Exemplary Compounds in presence of fixed β-lactams: K. p. A-1797 KPC-2 VIM-4 [3]	MIC (μg/mL) of Exemplary Compounds in presence of fixed β-lactams: K. p. 11978 OXA-48 [4]	IC50 (OXA-48) [nM]	MIC (μg/mL) of Exemplary Compounds in presence of fixed β-lactams: P. aerug. 2775 VIM-2 [5]	MIC [6] [µg/mL]	MIC ([2]; Escherichia coli, read-out: MIC alone) [µg/mL]
NCCc1cn(CC(=O)N[C@H]2Cc3cccc(C(=O)O)c3OB2O)nn1 [Example 6, (R)-3-(2-(4-(2-aminoethyl)-1H-1,2,3-triazol-1-yl)acetamido)-2-hydroxy-3,4-dihydro-2H-benzo[e][1,2]oxaborinine-8-carboxylic acid]	100 to 1000	< 100	C (C represents an MIC of <1 μg/mL)	< 100	1000 to 10000	C (C represents an MIC of <1 μg/mL)	B (B represents an MIC between 1 and 16 μg/mL inclusive)	B (B represents an MIC between 1 and 16 μg/mL inclusive)	1000 to 10000	C (C represents an MIC of <1 μg/mL)		
NCCCc1c(CN)nnn1CC(=O)N[C@H]1Cc2cccc(C(=O)O)c2OB1O [Example 110, (R)-3-(2-(4-(aminomethyl)-5-(3-aminopropyl)-1H-1,2,3-triazol-1-yl)acetamido)-2-hydroxy-3,4-dihydro-2H-benzo[e][1,2]oxaborinine-8-carboxylic acid]	1000 to 10000	100 to 1000	C (C represents an MIC of <1 μg/mL)	100 to 1000	< 100	C (C represents an MIC of <1 μg/mL)	C (C represents an MIC of <1 μg/mL)	B (B represents an MIC between 1 and 16 μg/mL inclusive)	100 to 1000	C (C represents an MIC of <1 μg/mL)		
O=C(Cn1ccc(B(O)O)n1)N[C@H]1Cc2cccc(C(=O)O)c2OB1O [Example 116, (R)-3-(2-(3-borono-1H-pyrazol-1-yl)acetamido)-2-hydroxy-3,4-dihydro-2H-benzo[e][1,2]oxaborinine-8-carboxylic acid]	< 100	< 100	B (B represents an MIC between 1 and 16 μg/mL inclusive)	< 100	1000 to 10000	C (C represents an MIC of <1 μg/mL)	B (B represents an MIC between 1 and 16 μg/mL inclusive)	B (B represents an MIC between 1 and 16 μg/mL inclusive)	100 to 1000	C (C represents an MIC of <1 μg/mL)		
O=C(Cn1cc(CF)nn1)N[C@H]1Cc2cccc(C(=O)O)c2OB1O [Example 111, (R)-3-(2-(4-(fluoromethyl)-1H-1,2,3-triazol-1-yl)acetamido)-2-hydroxy-3,4-dihydro-2H-benzo[e][1,2]oxaborinine-8-carboxylic acid]	< 100	< 100	B (B represents an MIC between 1 and 16 μg/mL inclusive)	< 100	1000 to 10000	C (C represents an MIC of <1 μg/mL)	B (B represents an MIC between 1 and 16 μg/mL inclusive)	B (B represents an MIC between 1 and 16 μg/mL inclusive)	100 to 1000	B (B represents an MIC between 1 and 16 μg/mL inclusive)		
NCCn1cc(CC(=O)N[C@H]2Cc3cccc(C(=O)O)c3OB2O)nn1 [Example 122, (R)-3-(2-(1-(2-aminoethyl)-1H-1,2,3-triazol-4-yl)acetamido)-2-hydroxy-3,4-dihydro-2H-benzo[e][1,2]oxaborinine-8-carboxylic acid]	< 100	< 100	B (B represents an MIC between 1 and 16 μg/mL inclusive)	< 100	100 to 1000	C (C represents an MIC of <1 μg/mL)	B (B represents an MIC between 1 and 16 μg/mL inclusive)	B (B represents an MIC between 1 and 16 μg/mL inclusive)	100 to 1000	C (C represents an MIC of <1 μg/mL)		
CC(C)(O/N=C(\C(=O)N[C@@H]1C(=O)N2C(C(=O)[O-])=C(C[n+]3ccccc3)CS[C@H]12)c1csc(N)n1)C(=O)O [Ceftazidime, ceftazidime, reference compound]											128	> 128
